System: patients with treatment-resistant major depressive disorder (TRD)
Assay: Phase 1/2 clinical trial of inhaled 5-MeO-DMT in TRD
Settings: for patients with at least one ADR: n=4
Description: This trial was designed in two parts. Part A was an open-label, single-arm, single-dose Phase 1 trial with two dose levels (12 mg (n=4) and 18 mg (n=4)). […] The primary endpoint of Part B was to assess the effects on the severity of depression, as assessed by the proportion of patients in remission on day seven after dosing, defined as a MADRS total score of less than or equal to 10.

[1] = 12 mg group n=4, sum of patient scores, 2 hours after dose
[2] = 12 mg group n=4, sum of patient scores, 3 hours after dose
[3] = 12 mg group n=4, sum of patient scores, baseline
[4] = 12 mg group n=4, sum of patient scores, day 1
[5] = 12 mg group n=4, sum of patient scores, day 7
[6] = IDR group n=8, sum of patient scores, 2 hours after last dose
[7] = IDR group n=8, sum of patient scores, 3 hours after last dose
[8] = IDR group n=8, sum of patient scores, baseline
[9] = IDR group n=8, sum of patient scores, day 1
[10] = IDR group n=8, sum of patient scores, day 7

COc1ccc2[nH]cc(CCN(C)C)c2c1 [5-MeO-DMT]
BPRS Anxiety percentage improvement (12 mg group n=4, day 7): 76.00%
MADRS Pessimistic Thoughts percentage improvement (12 mg group n=4, day 7): 50.00%
MADRS Reduced Sleep percentage improvement (12 mg group n=4, day 7): 50.00%
MADRS Concentration Difficulties improvement [1]: 9
MADRS Inability to Feel improvement [1]: 7
MADRS Inner Tension improvement [1]: 11
MADRS Lassitude improvement [1]: 6
MADRS Lassitude score [1]: 10
MADRS Pessimistic Thoughts improvement [1]: 8
MADRS Suicidal Thoughts improvement [1]: 5
MADRS Suicidal Thoughts score [1]: 3
BPRS Anxiety improvement [2]: 14
BPRS Blunted Affect improvement [2]: 3
BPRS Emotional Withdrawal improvement [2]: 2
BPRS Guilt Feelings improvement [2]: 9
BPRS Tension improvement [2]: 5
BPRS Anxiety score [3]: 25
BPRS Blunted Affect score [3]: 11
BPRS Emotional Withdrawal score [3]: 13
BPRS Guilt Feelings score [3]: 18
BPRS Tension score [3]: 14
MADRS Concentration Difficulties score [3]: 16
MADRS Inability to Feel score [3]: 16
MADRS Inner Tension score [3]: 13
MADRS Lassitude score [3]: 16
MADRS Pessimistic Thoughts score [3]: 16
MADRS Reduced Sleep score [3]: 12
MADRS Suicidal Thoughts score [3]: 8
BPRS Anxiety improvement [4]: 19
BPRS Blunted Affect improvement [4]: 5
BPRS Emotional Withdrawal improvement [4]: 5
BPRS Emotional Withdrawal score [4]: 8
BPRS Guilt Feelings improvement [4]: 13
BPRS Tension improvement [4]: 8
MADRS Concentration Difficulties improvement [4]: 14
MADRS Inability to Feel improvement [4]: 15
MADRS Inner Tension improvement [4]: 10
MADRS Lassitude improvement [4]: 16
MADRS Lassitude score [4]: 0
MADRS Pessimistic Thoughts improvement [4]: 9
MADRS Pessimistic Thoughts score [4]: 7
MADRS Reduced Sleep improvement [4]: 2
MADRS Suicidal Thoughts improvement [4]: 3
BPRS Anxiety improvement [5]: 19
BPRS Blunted Affect improvement [5]: 6
BPRS Emotional Withdrawal improvement [5]: 7
BPRS Guilt Feelings improvement [5]: 13
BPRS Guilt Feelings score [5]: 5
BPRS Tension improvement [5]: 8
MADRS Concentration Difficulties improvement [5]: 13
MADRS Inability to Feel improvement [5]: 15
MADRS Inability to Feel score [5]: 1
MADRS Inner Tension improvement [5]: 8
MADRS Lassitude improvement [5]: 13
MADRS Lassitude score [5]: 3
MADRS Pessimistic Thoughts improvement [5]: 8
MADRS Pessimistic Thoughts score [5]: 8
MADRS Reduced Sleep improvement [5]: 6
MADRS Suicidal Thoughts improvement [5]: 1
MADRS Reduced Sleep percentage improvement (IDR group n=8, day 1): 52.00%
MADRS Reduced Sleep percentage improvement (IDR group n=8, day 7): 64.00%
MADRS Concentration Difficulties improvement [6]: 19
MADRS Inability to Feel improvement [6]: 24
MADRS Inner Tension improvement [6]: 15
MADRS Lassitude improvement [6]: 17
MADRS Pessimistic Thoughts improvement [6]: 21
MADRS Suicidal Thoughts improvement [6]: 8
BPRS Anxiety improvement [7]: 18
BPRS Blunted Affect improvement [7]: 4
BPRS Emotional Withdrawal improvement [7]: 5
BPRS Guilt Feelings improvement [7]: 20
BPRS Tension improvement [7]: 5
BPRS Anxiety score [8]: 37
BPRS Blunted Affect score [8]: 15
BPRS Emotional Withdrawal score [8]: 13
BPRS Guilt Feelings score [8]: 34
BPRS Tension score [8]: 16
MADRS Concentration Difficulties score [8]: 30
MADRS Inability to Feel score [8]: 36
MADRS Inner Tension score [8]: 26
MADRS Lassitude score [8]: 27
MADRS Pessimistic Thoughts score [8]: 28
MADRS Reduced Sleep score [8]: 25
MADRS Suicidal Thoughts score [8]: 11
BPRS Anxiety improvement [9]: 21
BPRS Blunted Affect improvement [9]: 7
BPRS Emotional Withdrawal improvement [9]: 5
BPRS Guilt Feelings improvement [9]: 23
BPRS Tension improvement [9]: 5
MADRS Concentration Difficulties improvement [9]: 29
MADRS Inability to Feel improvement [9]: 34
MADRS Inner Tension improvement [9]: 20
MADRS Lassitude improvement [9]: 22
MADRS Pessimistic Thoughts improvement [9]: 24
MADRS Reduced Sleep improvement [9]: 13
MADRS Suicidal Thoughts improvement [9]: 10
BPRS Anxiety improvement [10]: 20
BPRS Blunted Affect improvement [10]: 7
BPRS Emotional Withdrawal improvement [10]: 5
BPRS Guilt Feelings improvement [10]: 24
BPRS Tension improvement [10]: 6
MADRS Concentration Difficulties improvement [10]: 21
MADRS Inability to Feel improvement [10]: 30
MADRS Inner Tension improvement [10]: 14
MADRS Lassitude improvement [10]: 24
MADRS Pessimistic Thoughts improvement [10]: 25
MADRS Reduced Sleep improvement [10]: 16
MADRS Suicidal Thoughts improvement [10]: 8
mean MADRS change from baseline (Part A, 12 mg group, day seven): −21.0
mean MADRS change from baseline, percent (Part A, 12 mg group, day seven): −65%
patients with at least one ADR (Part A, 12 mg single dose): 3 of 4
further patients with MADRS clinical response (Part A, 18 mg group n=4, day seven after dosing): 25%
mean MADRS change from baseline, percent (Part A, 18 mg group, day seven): −41%
patients with at least one ADR (Part A, 18 mg single dose): 3 of 4
patients with MADRS remission (total score less than or equal to 10) (Part B, IDR n=8, day seven): 87.5%

Reference: patent publication US20250241895A1 (GH RESEARCH IRELAND LIMITED, priority 2022, published 2025)
